Laboratory results: doi:10.1101/2022.04.02.486822v1 (biorxiv, 2022)

Biological target: T1, EcGhrA (Escherichia coli, UniProt P75913)
T1 sequence (P75913 1-312): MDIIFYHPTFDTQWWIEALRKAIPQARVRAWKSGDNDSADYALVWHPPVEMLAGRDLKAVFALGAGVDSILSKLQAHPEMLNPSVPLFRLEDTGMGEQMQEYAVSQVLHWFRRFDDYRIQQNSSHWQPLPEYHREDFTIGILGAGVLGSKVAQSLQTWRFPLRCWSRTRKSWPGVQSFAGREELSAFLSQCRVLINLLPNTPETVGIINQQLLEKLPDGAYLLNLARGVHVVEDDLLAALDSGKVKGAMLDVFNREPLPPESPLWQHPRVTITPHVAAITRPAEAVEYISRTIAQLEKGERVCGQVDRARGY
Assay: NADPH oxidation at […] nm, substrate inhibition fit
Assay type: biochemical
Conditions: 200 µM NADPH, 50 mM HEPES, pH 7.5, 22 °C

For `O=C(O)CC(=O)C(=O)O` [compound 7, oxaloacetate], which KI is on record?
The KI was 52 ± 15 mM.

How did the KI turn out when `O=CC(=O)O` [compound 6, glyoxylate] was run?
The KI was 1.5 ± 1.1 mM.
